Test results published in ChEMBL document CHEMBL2176989, “Design, synthesis, and pharmacological evaluation of piperidin-4-yl amino aryl sulfonamides: novel, potent, selective, orally active, and brain penetrant 5-HT₆ receptor antagonists” (J Med Chem, 2012).
pEC50, pKi: −log10 of the molar value. Activity calls are given as the source filed them. The calls are words filed in the database; no cut-off is given here.

Tests used:
[1] = Cmax in fasted Wistar rat at 5 mg/kg, po; format: ADME, organism-based; set-up: dose 5 mg/kg, route oral; details: in vivo
Rattus norvegicus [2] = experiment: Procognitive activity in Wistar rat assessed as reversal of time delay-induced memory deficit at 0.3 mg/kg, po by object recognition test; format: functional, organism-based; set-up: dose 0.3 mg/kg
[3] = molecular target: T1, 5-hydroxytryptamine receptor 1A (Homo sapiens, UniProt P08908); experiment: Binding affinity to 5HT1A receptor
T1 sequence (P08908 whole entry): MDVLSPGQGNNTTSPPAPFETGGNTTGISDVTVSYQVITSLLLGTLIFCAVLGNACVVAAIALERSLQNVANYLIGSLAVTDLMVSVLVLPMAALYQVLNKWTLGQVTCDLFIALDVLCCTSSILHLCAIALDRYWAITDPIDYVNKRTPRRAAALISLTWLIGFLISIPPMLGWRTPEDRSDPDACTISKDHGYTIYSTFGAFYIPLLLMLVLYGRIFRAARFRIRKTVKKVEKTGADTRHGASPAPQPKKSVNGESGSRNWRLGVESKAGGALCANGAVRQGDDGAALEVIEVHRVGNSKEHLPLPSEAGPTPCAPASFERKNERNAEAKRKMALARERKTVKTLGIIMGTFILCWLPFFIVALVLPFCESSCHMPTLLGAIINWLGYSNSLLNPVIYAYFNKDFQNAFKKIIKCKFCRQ

[4] = Apparent volume of distribution in Wistar rat at 5 mg/kg, iv; format: ADME, organism-based; set-up: dose 5 mg/kg, route intravenous; details: in vivo, read-out: Vz
[5] = molecular target: Sodium-dependent serotonin transporter (Homo sapiens, UniProt P31645); experiment: Binding affinity to SERT
[6] = Oral bioavailability in fasted Wistar rat at 5 mg/kg; format: ADME, organism-based; details: in vivo
Rattus norvegicus [7] = experiment: Procognitive activity in sc dosed Wistar rat assessed as increase in acetylcholine level in medial prefrontal cortex administered as an acute dose measured up to 4 hrs by brain microdialysis method; format: functional, organism-based
[8] = Ratio of drug uptake in brain to plasma in Wistar rat at 10 mg/kg, po after 1 hr; format: ADME, organism-based; set-up: dose 10 mg/kg, route oral; details: read-out: BPR

Sodium-dependent serotonin transporter, sequence (P31645 whole entry): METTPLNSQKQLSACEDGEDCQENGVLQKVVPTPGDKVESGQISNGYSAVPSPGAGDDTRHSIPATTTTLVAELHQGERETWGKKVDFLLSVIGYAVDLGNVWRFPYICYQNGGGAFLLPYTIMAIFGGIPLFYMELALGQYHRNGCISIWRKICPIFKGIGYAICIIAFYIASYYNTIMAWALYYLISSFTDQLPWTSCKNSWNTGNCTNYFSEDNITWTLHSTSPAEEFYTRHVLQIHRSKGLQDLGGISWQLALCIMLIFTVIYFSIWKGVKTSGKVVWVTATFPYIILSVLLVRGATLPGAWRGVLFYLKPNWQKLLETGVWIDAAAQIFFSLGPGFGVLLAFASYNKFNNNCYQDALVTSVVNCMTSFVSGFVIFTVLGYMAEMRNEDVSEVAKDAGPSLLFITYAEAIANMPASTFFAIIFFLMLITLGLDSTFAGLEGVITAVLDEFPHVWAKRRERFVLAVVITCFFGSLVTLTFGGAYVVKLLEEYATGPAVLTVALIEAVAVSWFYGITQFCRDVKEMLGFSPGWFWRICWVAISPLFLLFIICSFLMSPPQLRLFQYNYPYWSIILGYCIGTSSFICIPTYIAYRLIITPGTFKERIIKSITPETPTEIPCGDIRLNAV

## COc1ccc(S(=O)(=O)n2cc(C)c3cc(Cl)cnc32)cc1NC1CCN(C)CC1
[1]
  Cmax: 156 ng/mL
Rattus norvegicus [2]
  Activity: Active
[3]
  pEC50: < 5.00
[4]
  Vd: 10 L/kg
[5]
  pKi: < 5.00
[6]
  bioavailability: 29%
Rattus norvegicus [7]
  Activity: Dose-dependent effect
[8]
  Kp at 1 h: 0.9
